Values quoted from earlier work, collected in patent publication US10441535B2, “Nutraceutical confectionary composition containing caffeine and L-theanine” (NeuroGum, LLC, priority 2015, dated 2019).

Settings: human, in vivo

## N-Ethyl-L-glutamine [L-theanine]
  elimination half-life: 1 to 2 h
